The subject of data set [1] is HIV-1. Description: Anti-HIV-1 activity (EC50). The data set is classed as cell-based.
The subject of data set [2] is MT-2.
Data set [3] concerns mtDNA. Description: mtDNA IC50. The data set is classed as cell-based.
Data set [4] relates to K65R. The conditions noted are these: FIG. 1.
Data set [5] concerns 6TAM. As to conditions: FIG. 1.
The subject of data set [6] is M184V. As to conditions: FIG. 1.

Usually EC50 stands for the concentration needed to bring the measured effect to its halfway point.

Counter-ions that a name gives are not always drawn. Like-named read-outs stand apart in the source and are kept apart here.

On to `Nc1ncnc2c1ncn2[C@@H]1O[C@H](OCP(=O)(O)O)C=C1F` [2′F-d4AP, (2′R, 5′R)-9-(3-fluoro-2,5-dihydro-5-phosphonomethoxy-2-furanyl)adenine di sodium salt], for which the EC50 in data set [1] (read-out: EC50 [uM] HIV-1) was 1 to 100 µM. The compound also showed a CC50 in data set [2] of less than 1000 µM. Further, the IC50 in data set [3] (FIG. 2, read-out: IC50 [uM] mtDNA) is 100 to 1000 µM.

Turning to `C[C@H](Cn1cnc2c(N)ncnc21)OCP(=O)(O)O` [Tenofovir], in data set [1] (FIG. 1, read-out: EC50 [uM] HIV-1), the EC50 lay in the range of 1 to 100 µM. Further, in data set [4], the “Resistance - fold EC50 K65R” value was “+++ (+++=1-100)”. In data set [2], the CC50 was less than 1000 µM. The IC50 in data set [3] (FIG. 1, read-out: mtDNA 1050) lay within 100 to 1000 µM. The “Resistance - fold EC50 6TAM” value in data set [5] was “+++ (+++=1-100)”. Moreover, the “Resistance - fold EC50 M184V” value in data set [6] is “++++ (++++=0.01-1)”.

As to `Nc1nc(N)c2ncn([C@@H]3O[C@H](OCP(=O)(O)O)C=C3F)c2n1` [2′F-d4DAPP], the EC50 in data set [1] (read-out: EC50 [uM] HIV-1) fell in the range of 100 to 1000 µM.

As for `CCCOC(=O)[C@H](C)NP(=O)(CO[C@@H]1C=C(F)[C@H](n2cnc3c(N)ncnc32)O1)N[C@@H](C)C(=O)OCCC` [drawing 144 (Ala) n-Propyl], the EC50 in data set [1] (Human immunodeficiency virus 1, FIG. 5, prodrugs by R1 (aa) and R2 (ester), read-out: EC50) lay within 0.1 to 1 µM.
